The text below walks through data of EP0965268B1, “Thermostabilization, osmoprotection, and protection against desiccation of enzymes, cell components and cells by di-glycerol-phosphate” (bitop Aktiengesellschaft für biotechnische Optimierung, priority 1998, dated 1999).

For assay [1], the target named is T1, Desulfovibrio gigas rubredoxin (Megalodesulfovibrio gigas, UniProt P00270).
T1 construct: Rubredoxin was obtained and purified as described by LeGall and Dragoni [15] from Desulfovibrio gigas; made in house; host or cells: Desulfovibrio gigas (natural source, not recombinant)
T1 sequence (P00270 whole entry): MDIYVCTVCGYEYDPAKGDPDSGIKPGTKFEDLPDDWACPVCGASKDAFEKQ
The assay is described as follows: Thermal denaturation of rubredoxin, decrease in absorbance at 494 nm at 90°C. It counts as biochemical. The conditions noted are these: 30 min incubation of rubredoxin at 90 °C, without solute 73%. On the procedure: Rubredoxin was obtained and purified as described by LeGall and Dragoni from Desulfovibrio gigas. This protein was then stored at -20°C in 10 mM Tris-HCl buffer at pH 7.6.
The most informative feature of the UV-Vis absorption spectrum of rubredoxins comes from the signals with maxima centered at 380, 494, and 570 nm which are attributed to metal to ligand transitions. These bands are bleached when rubredoxin undergoes de naturation.
In the experiments designed to evaluate denaturation caused by thermal stress, rubredoxin was prepared at a concentration of 84 µg . ml^-1 in 10 mM Tris-HCI buffer pH 7.6 and the incubation mixtures, with or without the additions of solutes, were placed in 400 µl quartz cells in a Beckman spectrophotometer with a thermostated cell compartment. The protein was subjected to a temperature of 90°C and the decrease in the absorbance at 494 nm was monitored as a function of time.
The protective effect of 1,1'-di-glycerol-phosphate (at a concentration of 100 mM) was compared with that of potassium phosphate (100 mM) and glycerol (200 mM) (Figure 4). After 30 min incubation of rubredoxin at 90 °C the absorbance decreased by only 8.5% when 1,1'-di-glycerol-phosphate was present, whereas in the absence of any solute a decrease of 73% was observed. […] In fact, the decreases in absorption are as high as 61 and 58 % in the presence of 200 mM glycerol or 100 mM potassium phosphate, respectively.

Assay [2] has as its target T2, rabbit muscle lactate dehydrogenase (LDH) (Oryctolagus cuniculus, UniProt P13491).
T2 construct: Lactate dehydrogenase, LDH (Sigma Type III, rabbit muscle), purchased as a suspension in ammonium sulphate; purchased Sigma Type III; host or cells: rabbit muscle
The assay is described as follows: Thermostability of lactate dehydrogenase, residual activity after incubation at 50°C. It counts as biochemical. The conditions noted are these: 100 mM solute; 10 min of incubation at 50°C; without solute 30%. The method, then: (§1) Lactate dehydrogenase, LDH (Sigma Type III, rabbit muscle), purchased as a suspension in ammonium sulphate, was centrifuged, the supernatant was discarded, and the enzyme was suspended in 50 mM potassium phosphate pH 7.5. Alcohol dehydrogenase (Sigma, baker's yeast) was obtained in the lyophilized form and used without further purification. Enzymes were assayed using a Beckman spectrophotometer with a the rmostated cell compartment at 30°C.
(§2) In the experiments where thermal stress was imposed, enzymes were prepared at a concentration of 50 mg . ml^-1 in 20 mM potassium phosphate buffer, and the reaction mixtures were placed in Eppendorf tubes, incubated in a water-bath at 50°C for 10 minutes, cooled in an ice-bath and assayed immediately under standard conditions.
(§3) The effect of 1,1'-di-glycerol-phosphate on the thermostability of rabbit muscle LDH and baker's yeast ADH was compared to that of glycerol, a compound that is generally described as an enzyme protector. The percentage of residual activity in relation to pre-incubation activity, measured after 10 min of incubation at 50°C, is shown in Figure 5, for rabbit muscle LDH (A) and yeast ADH (B).
The effect of the concentration of 1,1'-di-glycerol-phosphate on the thermal stability of LDH was also monitored, and the results obtained after 10 min incubation at 50°C are shown in Figure 6. […]

Assay [3] addresses T3, yeast alcohol dehydrogenase (ADH) (Saccharomyces cerevisiae, UniProt P00330).
T3 construct: Alcohol dehydrogenase (Sigma, baker's yeast) was obtained in the lyophilized form and used without further purification; purchased Sigma; host or cells: baker's yeast
T3 sequence (P00330 2-348 limits assumed): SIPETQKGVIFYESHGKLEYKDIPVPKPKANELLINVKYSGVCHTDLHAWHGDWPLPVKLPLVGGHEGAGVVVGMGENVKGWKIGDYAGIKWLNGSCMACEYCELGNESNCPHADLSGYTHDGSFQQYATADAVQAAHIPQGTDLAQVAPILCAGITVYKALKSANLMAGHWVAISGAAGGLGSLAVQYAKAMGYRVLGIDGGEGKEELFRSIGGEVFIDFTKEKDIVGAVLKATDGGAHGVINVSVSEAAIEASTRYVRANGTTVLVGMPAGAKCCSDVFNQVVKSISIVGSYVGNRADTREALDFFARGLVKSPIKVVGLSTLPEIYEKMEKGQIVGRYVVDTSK
Kind of assay: Thermostability of alcohol dehydrogenase, residual activity after incubation at 50°C. It counts as biochemical, baker's yeast. The conditions noted are these: 10 min incubation at 50°C, without solute 33%. On the procedure: as §1, §2, §3

SMILES strings stand for the structures.

Regarding `O=P(O)(OCC(O)CO)OCC(O)CO` (stereo not shown) [1,1'-di-glycerol-phosphate], in assay [1] (100 mM solute), the “decrease in absorbance at 494 nm” value turned out to be 8.5%. The “residual activity in relation to pre-incubation activity” value in assay [2] came to 85%. Moreover, in assay [3] (100 mM solute), the “activity retained (of the initial activity)” value is on record as 88%.

Take `O=P(O)(O)O` [potassium phosphate]: the “decrease in absorbance at 494 nm” value in assay [1] (100 mM solute) is 58%.

On to `OCC(O)CO` [glycerol], for which the “decrease in absorbance at 494 nm” value in assay [1] (200 mM solute) worked out at 61%. Moreover, the “residual activity in relation to pre-incubation activity” value in assay [2] turned out to be 37%. The “activity retained (of the initial activity)” value in assay [3] (200 mM solute) was 31%.
